In patent US20050148627A1, “Benzopyran compounds for use in the treatment and prevention of inflammation related conditions” (priority 2003, published 2005):
Several values for one entry are separate records, joined by “and”; a condition that tells them apart may be missing. Equal entries are not always repeated.

Biological target: COX-1 (Homo sapiens, UniProt P23219)
Test: biochemical

Sequence of COX-1 (P23219 24-599): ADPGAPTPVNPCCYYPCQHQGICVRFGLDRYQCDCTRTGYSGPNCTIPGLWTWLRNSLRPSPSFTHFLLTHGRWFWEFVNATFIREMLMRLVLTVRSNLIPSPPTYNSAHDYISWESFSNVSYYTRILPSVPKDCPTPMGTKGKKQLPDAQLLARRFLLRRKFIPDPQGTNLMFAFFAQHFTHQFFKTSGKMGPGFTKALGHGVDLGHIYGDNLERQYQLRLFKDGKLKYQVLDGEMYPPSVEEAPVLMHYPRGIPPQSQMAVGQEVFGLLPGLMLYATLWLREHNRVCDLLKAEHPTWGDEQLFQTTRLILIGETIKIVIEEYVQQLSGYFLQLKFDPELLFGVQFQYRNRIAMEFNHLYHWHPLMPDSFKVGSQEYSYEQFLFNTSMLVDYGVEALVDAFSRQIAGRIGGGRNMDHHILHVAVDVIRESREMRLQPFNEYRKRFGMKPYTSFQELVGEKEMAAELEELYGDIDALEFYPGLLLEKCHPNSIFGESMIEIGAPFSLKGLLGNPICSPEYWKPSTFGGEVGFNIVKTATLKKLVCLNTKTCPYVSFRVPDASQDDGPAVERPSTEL

## CCCc1cc(OC(F)(F)F)cc2c1OC(C(F)(F)F)C(C(=O)O)=C2 (racemic) [Example 21i, 8-propyl-6-(trifluoromethoxy)-2-(trifluoromethyl)-2H-chromene-3-carboxylic acid]
  IC50: 20.5 µM and 13.6 µM

## Cc1cc(C)c2c(c1)C=C(C(=O)O)C(C(F)(F)F)O2 (racemic) [Example 32a, 6,8-dimethyl-2-(trifluoromethyl)-2H-chromene-3-carboxylic acid]
  IC50: > 100 µM and 185 µM and 204 µM and 165 µM and 128 µM

## O=C(O)C1=Cc2cc(Cl)c(Cc3ccccc3)cc2O[C@H]1C(F)(F)F (single isomer, unassigned) [Example 9l]
  IC50: 3.05 µM and 2.38 µM

## O=C(O)C1=Cc2cc(Cl)c(Cc3ccccc3)cc2O[C@@H]1C(F)(F)F (single isomer, unassigned) [Example 9m]
  IC50: 24.1 µM

## COc1cc(Cl)c2c(c1)C=C(C(=O)O)[C@H](C(F)(F)F)O2 (single isomer, unassigned) [Example 17h]
  IC50: > 100 µM

## COc1cc(Cl)c2c(c1)C=C(C(=O)O)[C@@H](C(F)(F)F)O2 (single isomer, unassigned) [Example 17i]
  IC50: 81.1 µM and 36.4 µM

## CCc1cc(OC(F)(F)F)cc2c1O[C@H](C(F)(F)F)C(C(=O)O)=C2 (single isomer, unassigned) [Example 21k]
  IC50: 23.4 µM and 27 µM and 9.26 µM and 11 µM

## CCc1cc(OC(F)(F)F)cc2c1O[C@@H](C(F)(F)F)C(C(=O)O)=C2 (single isomer, unassigned) [Example 21l]
  IC50: > 100 µM and 115 µM and 49.6 µM

## Cc1cc(Cl)cc2c1O[C@H](C(F)(F)F)C(C(=O)O)=C2 (single isomer, unassigned) [Example 21t]
  IC50: 32.3 µM and 7.18 µM and 6.42 µM and 8.06 µM and 18.4 µM

## Cc1cc(Cl)cc2c1O[C@@H](C(F)(F)F)C(C(=O)O)=C2 (single isomer, unassigned) [Example 21u]
  IC50: > 100 µM

## Cc1cc(C)c2c(c1)C=C(C(=O)O)[C@@H](C(F)(F)F)O2 (single isomer, unassigned) [Example 32b]
  IC50: > 100 µM

## CCc1ccc2c(c1)C=C(C(=O)O)[C@@H](C(F)(F)F)O2 (single isomer, unassigned) [Example 34b]
  IC50: 57.9 µM and 35.5 µM

## CCc1ccc2c(c1)C=C(C(=O)O)C(C(F)(F)F)O2 (stereo in doubt) [Example 34c, (2R)-6-ethyl-2-(trifluoromethyl)-2H-chromene-3-carboxylic acid]
  IC50: > 100 µM

## O=C(O)C1=Cc2cc(Cl)c(O)c(Cl)c2OC1C(F)(F)F (centres unmarked) [Example 1a, 6,8-dichloro-7-hydroxy-2-(trifluoromethyl)-2H-chromene-3-carboxylic acid]
  IC50: > 500 µM

## O=C(O)C1=Cc2cc(Cl)c(OCC3CCCC3)c(Cl)c2OC1C(F)(F)F (centres unmarked) [Example 1c, 6,8-dichloro-7-(cyclopentylmethoxy)-2-(trifluoromethyl)-2H-chromene-3-carboxylic acid]
  IC50: 0.543 µM and 0.143 µM

## CC(C)(C)CCOc1c(Cl)cc2c(c1Cl)OC(C(F)(F)F)C(C(=O)O)=C2 (centres unmarked) [Example 1d, 6,8-dichloro-7-(3,3-dimethylbutoxy)-2-(trifluoromethyl)-2H-chromene-3-carboxylic acid]
  IC50: 49.2 µM

## O=C(O)C1=Cc2cc(Cl)c(OCc3ccccc3)c(Cl)c2OC1C(F)(F)F (centres unmarked) [Example 1g, 7-(benzyloxy)-6,8-dichloro-2-(trifluoromethyl)-2H-chromene-3-carboxylic acid]
  IC50: 21 µM

## CC(C)(C)Oc1c(Cl)cc2c(c1Cl)OC(C(F)(F)F)C(C(=O)O)=C2 (centres unmarked) [Example 1h, 7-tert-butoxy-6,8-dichloro-2-(trifluoromethyl)-2H-chromene-3-carboxylic acid]
  IC50: < 0.137 µM

## Nc1ccc(Oc2cc3c(cc2Cl)C=C(C(=O)O)C(C(F)(F)F)O3)c(F)c1 (centres unmarked) [Example 2a, 7-(4-amino-2-fluorophenoxy)-6-chloro-2-(trifluoromethyl)-2H-chromene-3-carboxylic acid]
  IC50: < 0.137 µM and 0.347 µM and 0.112 µM

## CCC(CC)COc1cc2c(cc1Cl)C=C(C(=O)O)C(C(F)(F)F)O2 (centres unmarked) [Example 2c, 6-chloro-7-(2-ethylbutoxy)-2-(trifluoromethyl)-2H-chromene-3-carboxylic acid]
  IC50: 51.6 µM

## O=C(O)C1=Cc2cc(Cl)c(OCC3CCCC3)cc2OC1C(F)(F)F (centres unmarked) [Example 2d, 6-chloro-7-(cyclopentylmethoxy)-2-(trifluoromethyl)-2H-chromene-3-carboxylic acid]
  IC50: 44.3 µM

## CC(C)(C)CCOc1cc2c(cc1Cl)C=C(C(=O)O)C(C(F)(F)F)O2 (centres unmarked) [Example 2e, 6-chloro-7-(3,3-dimethylbutoxy)-2-(trifluoromethyl)-2H-chromene-3-carboxylic acid]
  IC50: 68.8 µM

## O=C(O)C1=Cc2cc(Cl)c(OCc3ccccc3)cc2OC1C(F)(F)F (centres unmarked) [Example 2f, 7-(benzyloxy)-6-chloro-2-(trifluoromethyl)-2H-chromene-3-carboxylic acid]
  IC50: > 100 µM

## CC(C)(C)Oc1cc2c(cc1Cl)C=C(C(=O)O)C(C(F)(F)F)O2 (centres unmarked) [Example 2g, 7-tert-butoxy-6-chloro-2-(trifluoromethyl)-2H-chromene-3-carboxylic acid]
  IC50: > 500 µM

## COCCOc1cc2c(cc1Cl)C=C(C(=O)O)C(C(F)(F)F)O2 (centres unmarked) [Example 2h, 6-chloro-7-(2-methoxyethoxy)-2-(trifluoromethyl)-2H-chromene-3-carboxylic acid]
  IC50: > 100 µM

## COc1cc2c(cc1Cl)C=C(C(=O)O)C(C(F)(F)F)O2 (centres unmarked) [Example 2i, 6-chloro-7-methoxy-2-(trifluoromethyl)-2H-chromene-3-carboxylic acid]
  IC50: > 100 µM and 187 µM

## COc1c(Cl)cc2c(c1C)OC(C(F)(F)F)C(C(=O)O)=C2 (centres unmarked) [Example 3a, 6-chloro-7-methoxy-8-methyl-2-(trifluoromethyl)-2H-chromene-3-carboxylic acid]
  IC50: > 100 µM

## CCC(CC)COc1c(Cl)cc2c(c1C)OC(C(F)(F)F)C(C(=O)O)=C2 (centres unmarked) [Example 3b, 6-chloro-7-(2-ethylbutoxy)-8-methyl-2-(trifluoromethyl)-2H-chromene-3-carboxylic acid]
  IC50: 15.8 µM and 6.7 µM

## CCCOc1c(Cl)cc2c(c1C)OC(C(F)(F)F)C(C(=O)O)=C2 (centres unmarked) [Example 3c, 6-chloro-8-methyl-7-propoxy-2-(trifluoromethyl)-2H-chromene-3-carboxylic acid]
  IC50: 2.3 µM

## Cc1c(OCC2CC2)c(Cl)cc2c1OC(C(F)(F)F)C(C(=O)O)=C2 (centres unmarked) [Example 3d, 6-chloro-7-(cyclopropylmethoxy)-8-methyl-2-(trifluoromethyl)-2H-chromene-3-carboxylic acid]
  IC50: < 0.137 µM

## Cc1c(OCC(C)C)c(Cl)cc2c1OC(C(F)(F)F)C(C(=O)O)=C2 (centres unmarked) [Example 3e, 6-chloro-7-isobutoxy-8-methyl-2-(trifluoromethyl)-2H-chromene-3-carboxylic acid]
  IC50: < 0.137 µM

## CCCCOc1c(Cl)cc2c(c1C)OC(C(F)(F)F)C(C(=O)O)=C2 (centres unmarked) [Example 3f, 7-butoxy-6-chloro-8-methyl-2-(trifluoromethyl)-2H-chromene-3-carboxylic acid]
  IC50: 7.09 µM and 9.55 µM and 9.09 µM

## Cc1c(OCC(C)(C)C)c(Cl)cc2c1OC(C(F)(F)F)C(C(=O)O)=C2 (centres unmarked) [Example 3g, 6-chloro-8-methyl-7-(neopentyloxy)-2-(trifluoromethyl)-2H-chromene-3-carboxylic acid]
  IC50: 74.4 µM and 81.2 µM

## Cc1c(OCCC(C)C)c(Cl)cc2c1OC(C(F)(F)F)C(C(=O)O)=C2 (centres unmarked) [Example 3h, 6-chloro-7-(isopentyloxy)-8-methyl-2-(trifluoromethyl)-2H-chromene-3-carboxylic acid]
  IC50: 17 µM and 18.5 µM and 18.4 µM

## Cc1c(O)c(Cl)cc2c1OC(C(F)(F)F)C(C(=O)O)=C2 (centres unmarked) [Example 3i, 6-chloro-7-hydroxy-8-methyl-2-(trifluoromethyl)-2H-chromene-3-carboxylic acid]
  IC50: > 97.6 µM
